Measurements reported in US9657033B2, “Tetrahydronaphthyridine and related bicyclic compounds for inhibition of RORγ activity and the treatment of disease” (Merck Sharp & Dohme Corp., priority 2012, dated 2017).
Counter-ions that a name gives are not always drawn.

Target: RORγ-LBD (Homo sapiens (Human), UniProt P51449)
Assay: RORγ-Ligand Binding Domain (LBD) TR-FRET Assay Protocol II
Type: biochemical
Details: purified RORγ-LBD, SRC1 peptide, overnight at 4° C.
Method: Part II—Procedures for RORγ-Ligand Binding Domain TR-FRET Assay Protocol II
HIS-tagged RORγ-LBD protein was expressed in SF9 cells using a baculovirus expression system. The RORγ-LBD protein was purified by […]. Separately, SF9 cells not expressing recombinant protein were lysed in TBS buffer (25 mM Tris, pH 8.0, 150 mM NaCl) under sonication. The lysate was added to the purified RORγ-LBD in a volume equivalent of 0.75 μL lysate (from 30,000 SF9 cells) per 75 femtomol of RORγ-LBD protein. The resulting mixture was diluted in assay buffer (50 mM Tris pH 7.0, 50 mM KCl, 1 mM EDTA, 0.1 mM DTT, 0.01% BSA) to obtain RORγ-LBD protein at a final concentration of 3 nM.
Compounds to be tested were injected to the assay plate using Acoustic Droplet Ejection technology by Echo 550 liquid handler (Labcyte, Calif.).
A stock of biotinylated-LXXLL peptide from coactivator SRC1 (Biotin-[…]) was prepared in assay buffer and added to each well (100 nM final concentration). A solution of Europium tagged anti-HIS antibody (1.25 nM final concentration) and APC-conjugated streptavidin (8 nM final concentration) were also added to each well.
The final assay mixture was incubated overnight at 4° C., and the fluorescence signal was measured on an Envision plate reader: (Excitation filter=340 nm; APC emission=665 nm; Europium emission=615 nm; dichroic mirror=D400/D630; delay time=100 μs, integration time=200 μs). The EC50 value for test compounds was calculated from the quotient of the fluorescence signal at 665 nm divided by the fluorescence signal at 615 nm

Chain of RORγ-LBD (P51449 269-508): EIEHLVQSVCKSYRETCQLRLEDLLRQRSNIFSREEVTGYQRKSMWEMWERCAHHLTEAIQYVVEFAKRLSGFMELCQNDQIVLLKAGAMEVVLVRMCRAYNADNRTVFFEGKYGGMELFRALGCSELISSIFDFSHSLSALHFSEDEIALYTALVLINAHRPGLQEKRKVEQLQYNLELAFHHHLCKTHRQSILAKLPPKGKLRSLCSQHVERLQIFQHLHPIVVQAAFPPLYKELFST

Row | SMILES | EC50 [µM]
1 | CN(C)C(=O)NC1Cc2ncc(NC(=O)c3c(Cl)cccc3Cl)cc2N(S(=O)(=O)c2cccc(C(F)(F)F)c2)C1 (stereo not drawn) [Compound 48] | 0.01
2 | O=C(Nc1ccc2c(c1)N(S(=O)(=O)c1cccc(Cl)c1)C[C@H](CN1CCCC1=O)O2)c1c(Cl)cccc1Cl [Compound 80, 2,6-dichloro-N-[(S)-4-(3-chloro-benzenesulfonyl)-2-(2-oxopyrrolidin-1-ylmethyl)-3,4-dihydro-2H-benzo[1,4]oxazin-6-yl]-benzamide] | 0.026
3 | CC(=O)NC1Cc2ncc(NC(=O)c3c(Cl)cccc3Cl)cc2N(S(=O)(=O)c2cccc(Cl)c2)C1 (stereo not drawn) [Compound 46] | 0.072
4 | CCOC(=O)N[C@@H]1Cc2ncc(NC(=O)c3c(Cl)cccc3Cl)cc2N(S(=O)(=O)c2cccc(C(F)(F)F)c2)C1 [Compound 64] | 0.018
5 | COC(=O)N[C@@H]1Cc2ncc(NC(=O)c3c(Cl)cccc3Cl)cc2N(S(=O)(=O)c2cccc(C)c2)C1 [Compound 42, (R)-methyl (7-(2,6-dichlorobenzamido)-1-(m-tolylsulfonyl)-1,2,3,4-tetrahydro-1,5-naphthyridin-3-yl)carbamate] | 0.025
6 | CC(C)OC(=O)N[C@@H]1Cc2ncc(NC(=O)c3c(Cl)cccc3Cl)cc2N(S(=O)(=O)c2cccc(C(F)(F)F)c2)C1 [Compound 58] | 0.013
7 | CC(=O)NC[C@H]1CN(S(=O)(=O)c2cccc(C3CC3)c2)c2cc(NC(=O)c3c(Cl)cccc3Cl)cnc2O1 [Compound 43] | 0.024
8 | Cc1cccc(S(=O)(=O)N2C[C@H](C)Oc3ncc(NC(=O)C(C)c4ccc(F)cc4)cc32)c1 (stereo partly drawn) [Compound 32] | 0.097
9 | CCNC1Cc2ncc(NC(=O)c3c(Cl)cccc3Cl)cc2N(S(=O)(=O)c2cccc(C)c2)C1 (stereo not drawn) [Compound 77] | 0.553
10 | N[C@H]1Cc2ncc(NC(=O)c3c(Cl)cccc3Cl)cc2N(S(=O)(=O)c2cccc(C(F)(F)F)c2)C1 [Compound 57] | 0.024
11 | C[C@H](O)C(=O)N[C@@H]1Cc2ncc(NC(=O)c3c(Cl)cccc3Cl)cc2N(S(=O)(=O)c2cccc(C(F)(F)F)c2)C1 [Compound 56] | 0.132
12 | NC1Cc2ncc(NC(=O)c3c(Cl)cccc3Cl)cc2N(S(=O)(=O)c2cccc(C3CC3)c2)C1 (stereo not drawn) [Compound 70] | 0.038
13 | CCOC(=O)N[C@H]1Cc2ncc(NC(=O)c3c(Cl)cccc3Cl)cc2N(S(=O)(=O)c2cccc(C(F)(F)F)c2)C1 [Compound 63] | 0.026
14 | Cc1cccc(S(=O)(=O)N2CC(N)COc3ncc(NC(=O)c4c(Cl)cccc4Cl)cc32)c1 (stereo not drawn) [Compound 74, N-[7-amino-5-(toluene-3-sulfonyl)-5,6,7,8-tetrahydro-9-oxa-1,5-diaza-benzocyclohepten-3-yl]-2,6-dichloro-benzamide] | 0.174
15 | Cc1cccc(S(=O)(=O)N2C[C@H](C)Oc3ncc(NC(=O)C(C)c4ccccc4C)cc32)c1 (stereo partly drawn) [Compound 31] | 0.057
16 | Cc1nn(C(F)F)cc1S(=O)(=O)N1C[C@H](NC(=O)C(F)(F)F)Cc2ncc(NC(=O)c3c(F)cccc3Cl)cc21 [Compound 50] | 0.031
17 | O=C(Nc1cnc2c(c1)N(S(=O)(=O)c1cccc(C(F)(F)F)c1)C[C@@H](N1CCOC1=O)C2)c1c(Cl)cccc1Cl [Compound 97, (S)-2,6-dichloro-N-(7-(2-oxooxazolidin-3-yl)-5-((3-(trifluoromethyl)phenyl)sulfonyl)-5,6,7,8-tetrahydro-1,5-naphthyridin-3-yl)benzamide] | 0.042
18 | CN1CC(=O)N(C[C@H]2CN(S(=O)(=O)c3cccc(Cl)c3)c3cc(NC(=O)c4c(Cl)cccc4Cl)cnc3O2)C1=O [Compound 86, (S)-2,6-dichloro-N-(1-((3-chlorophenyl)sulfonyl)-3-((3-methyl-2,5-dioxoimidazolidin-1-yl)methyl)-2,3-dihydro-1H-pyrido[2,3-b][1,4]oxazin-7-yl)benzamide] | 0.01
19 | Cc1nn(C(F)F)cc1S(=O)(=O)N1C[C@H](CO)Cc2ncc(NC(=O)[C@@H](C)C(C)(C)C)cc21 [Compound 92, (S)-N-((R)-5-((1-(difluoromethyl)-3-methyl-1H-pyrazol-4-yl)sulfonyl)-7-(hydroxymethyl)-5,6,7,8-tetrahydro-1,5-naphthyridin-3-yl)-2,3,3-trimethylbutanamide] | 10
20 | CCN(CC)[C@@H]1Cc2ncc(NC(=O)c3c(Cl)cccc3Cl)cc2N(S(=O)(=O)c2cccc(C)c2)C1 [Compound 79] | 0.024
21 | CC(C)(C)OC(=O)N[C@@H]1Cc2ncc(NC(=O)c3c(Cl)cccc3Cl)cc2N(S(=O)(=O)c2cccc(C(F)(F)F)c2)C1 [Compound 59] | 0.024

Row | SMILES | EC50 [µM]
22 | O=C(Nc1cnc2c(c1)N(S(=O)(=O)c1cccc(C(F)(F)F)c1)CC(N1CCOC1=O)C2)c1c(Cl)cccc1Cl (stereo in doubt) [Compound 98, (R)-2,6-dichloro-N-(7-(2-oxooxazolidin-3-yl)-5-((3-(trifluoromethyl)phenyl)sulfonyl)-5,6,7,8-tetrahydro-1,5-naphthyridin-3-yl)benzamide] | 0.017
23 | CN1CCN(C[C@H]2CN(S(=O)(=O)c3cccc(Cl)c3)c3cc(NC(=O)c4c(Cl)cccc4Cl)cnc3O2)CC1 [Compound 91] | 1.33
24 | Cc1cccc(S(=O)(=O)N2CC(N)COc3ncc(NC(=O)C(F)(F)F)cc32)c1 (stereo not drawn) [Compound 71, N-[7-amino-5-(toluene-3-sulfonyl)-5,6,7,8-tetrahydro-9-oxa-1,5-diaza-benzocyclohepten-3-yl]-2,2,2-trifluoro-acetamide] | 0.013
25 | Cc1cccc(S(=O)(=O)N2CC(CO)Cc3ncc(NC(=O)c4c(Cl)cccc4Cl)cc32)c1 (stereo not drawn) [Compound 94, 2,6-dichloro-N-(7-(hydroxymethyl)-5-(m-tolylsulfonyl)-5,6,7,8-tetrahydro-1,5-naphthyridin-3-yl)benzamide] | 0.02
26 | Cc1cccc(S(=O)(=O)N2C[C@H](NC(=O)[C@H](C)O)Cc3ncc(NC(=O)c4c(Cl)cccc4Cl)cc32)c1 [Compound 67] | 0.023
27 | O=C(Nc1cnc2c(c1)N(S(=O)(=O)c1cccc(Cl)c1)C[C@H](CN1CC[C@@H](O)C1)O2)c1c(Cl)cccc1Cl [Compound 89] | 0.032
28 | Cc1nn(C(F)F)cc1S(=O)(=O)N1C[C@@H](CN2CC[C@@H](O)C2)Cc2ncc(NC(=O)[C@@H](C)C(C)(C)C)cc21 [Compound 96, (S)-N-((R)-5-((1-(difluoromethyl)-3-methyl-1H-pyrazol-4-yl)sulfonyl)-7-(((R)-3-hydroxypyrrolidin-1-yl)methyl)-5,6,7,8-tetrahydro-1,5-naphthyridin-3-yl)-2,3,3-trimethylbutanamide] | 0.168
29 | Cc1nn(C(F)F)cc1S(=O)(=O)N1C[C@@H](NC(=O)OC(C)C)Cc2ncc(NC(=O)c3c(F)cccc3Cl)cc21 [Compound 65] | 0.009
30 | Cc1cccc(S(=O)(=O)N2C[C@H](C)Oc3ncc(NC(=O)C(C)C(F)(F)F)cc32)c1 (stereo partly drawn) [Compound 30] | 0.111
31 | CC(C)(C)OC(=O)N[C@@H]1Cc2ncc(NC(=O)c3c(Cl)cccc3Cl)cc2N(S(=O)(=O)c2cccc(Cl)c2)C1 [Compound 45] | 0.006
32 | C[C@H](O)C(=O)N[C@H]1Cc2ncc(NC(=O)c3c(Cl)cccc3Cl)cc2N(S(=O)(=O)c2cccc(C(F)(F)F)c2)C1 [Compound 52] | 0.074
33 | Cc1nn(C(F)F)cc1S(=O)(=O)N1C[C@H](NC(=O)OC(C)C)Cc2ncc(NC(=O)c3c(F)cccc3Cl)cc21 [Compound 66] | 0.204
34 | O=C(Nc1cnc2c(c1)N(S(=O)(=O)c1cccc(C(F)(F)F)c1)C[C@@H](N1CCCC1=O)C2)c1c(Cl)cccc1Cl [Compound 81] | 0.035
35 | CC(C)(C)OC(=O)N[C@H]1Cc2ncc(NC(=O)c3c(Cl)cccc3Cl)cc2N(S(=O)(=O)c2cccc(C(F)(F)F)c2)C1 [Compound 54] | 0.017
36 | Cc1cccc(S(=O)(=O)N2C[C@H](N)Cc3ncc(NC(=O)c4c(Cl)cccc4Cl)cc32)c1 [Compound 40, (R)-N-(7-amino-5-(m-tolylsulfonyl)-5,6,7,8-tetrahydro-1,5-naphthyridin-3-yl)-2,6-dichlorobenzamide trifluoroacetic acid salt] | 0.018
37 | CC(=O)NC1Cc2ncc(NC(=O)c3c(Cl)cccc3Cl)cc2N(S(=O)(=O)c2cccc(C3CC3)c2)C1 (stereo not drawn) [Compound 68] | 0.025
38 | Cc1cccc(S(=O)(=O)N2C[C@H](NC(=O)OC(C)(C)C)Cc3ncc(NC(=O)c4c(Cl)cccc4Cl)cc32)c1 [Compound 39, (R)-tert-butyl (7-(2,6-dichlorobenzamido)-1-(m-tolylsulfonyl)-1,2,3,4-tetrahydro-1,5-naphthyridin-3-yl)carbamate] | 0.025
39 | C[C@H]1CN(S(=O)(=O)c2cccc(C3CC3)c2)c2cc(NC(=O)c3c(Cl)cccc3Cl)cnc2O1 [Compound 35] | 0.007
40 | CC(C)(C)OC(=O)NC1Cc2ncc(NC(=O)c3c(Cl)cccc3Cl)cc2N(S(=O)(=O)c2cccc(C3CC3)c2)C1 (stereo not drawn) [Compound 69] | 0.013
41 | C[C@H](N)C(=O)N[C@@H]1Cc2ncc(NC(=O)c3c(Cl)cccc3Cl)cc2N(S(=O)(=O)c2cccc(C(F)(F)F)c2)C1 [Compound 55] | 0.032
42 | N[C@H]1Cc2ncc(NC(=O)c3c(Cl)cccc3Cl)cc2N(S(=O)(=O)c2cccc(C(F)(F)F)c2)C1 [Compound 53] | 0.025
